Test results: publication PMC6656724 (Communications Biology, 2019)
Read-outs that look alike come from different tables or passages of the source.

Columns and labels:
Homo sapiens KMO (HsKMO) = target: T1, Homo sapiens KMO (HsKMO) (Homo sapiens, UniProt O15229); assay: KMO inhibition assay, NADPH oxidation at 340 nm (HsKMO); format: biochemical
T1 construct: GST; made in house
Excerpt: (§1) A combination of ligand- and structural-based virtual screening approaches (see supporting information for details) was used to identify an initial library of >1000 compounds that may be suitable as potential KMO inhibitors. These compounds were screened for inhibition of Pseudomonas fluorescens KMO (PfKMO) and Homo sapiens KMO (HsKMO) using high-throughput assays by monitoring the time-dependent oxidation of NADPH at 340 nm[23].
(§2) Small-molecule compounds were supplied by Biofocus (Charles River Laboratories International Inc., MA, USA), which were identified in silico as potential inhibitors (further details are described in the Supplementary Methods). Initial inhibition assays were performed against Pseudomonas fluorescens KMO (PfKMO) and Homo sapiens KMO (HsKMO) by monitoring the time-dependent absorbance change of NADPH at 340 nm. Purified KMO protein (200 nM) was incubated in 100 µL reaction buffer (20 mM potassium phosphate pH 8.0, 7 mM 2-mercaptoethanol) containing 100 μM NADPH, 100 μM L-Kyn and 20 μM potential inhibitors in 96-well plates. […] The inhibitors identified in the initial screens were validated and re-assayed individually in a 1 cm path-length quartz micro cuvette. […] Suppliers for target inhibitor compounds are listed in Supplementary Table 11.
Supplementary Figure 1. Examples of inhibition data used to generate IC50 values for selected KMO inhibitors.
(§3) NADPH (100µM) were added into reaction buffer (HsKMO: 20mM potassium phosphate pH 8.0, 7 mM 2-mercaptoethanol; PfKMO: 20 mM HEPES, 10mM sodium acetate, pH 7.5, 2mM DTT). The reaction was initiated by the addition of KMO enzyme (HsKMO: 0.5µM; PfKMO: 0.1 µM). KMO activity was measured in the presence of a range of inhibitor concentrations. […]
(§4) 3.5 Steady-state enzymatic assays.
(§5) Initial screening assays and determination of IC50 values for each potential inhibitor compound were carried out using either 0.1 µM PfKMO or 0.5 µM HsKMO at fixed […]
(§6) (HsKMO: 20 mM potassium phosphate pH 8.0, 7 mM 2-mercaptoethanol; PfKMO:
(§7) 20 mM HEPES, 10 mM sodium acetate, pH 7.5, 2 mM DTT). KMO activity was measured in the presence of a range of inhibitor concentrations by monitoring the […]
(§8) consumption of NADPH at 340 nm upon addition of enzyme via a Cary 50 UV-Vis spectrophotometer (Agilent Technologies). Rates were determined from linear regression fits to the initial linear portion of the curves. All measurements were performed in triplicate. The IC50 values for inhibitors were obtained by plotting the percentage inhibition versus the inhibitor concentration and fitting to the Morrison equation16 (equation 1) using Origin 9.0 Software (OriginLab, Northampton, MA).
E + I + K!"" − E + I + K!"" ! − 4[E][I] where v0 is the enzyme activity without inhibitor, vi is the enzyme activity with ligand

[1] = target: T2, Pseudomonas fluorescens KMO (PfKMO) (Pseudomonas fluorescens, UniProt Q84HF5, C252S/C461S); assay: biochemical
T2 construct: made in house; host or cells: E. coli BL21 (DE3)
Excerpt: as §1, §2
as §3, with “Supplementary Figure 1. Examples of inhibition data used to generate IC50 values for selected KMO inhibitors. Fixed concentration of L -KYN (200 µM) and NADPH” for “NADPH”
as §4, §5, §6, §7
as §8, with “MA). […]” for “MA).”

T1 sequence (O15229 whole entry): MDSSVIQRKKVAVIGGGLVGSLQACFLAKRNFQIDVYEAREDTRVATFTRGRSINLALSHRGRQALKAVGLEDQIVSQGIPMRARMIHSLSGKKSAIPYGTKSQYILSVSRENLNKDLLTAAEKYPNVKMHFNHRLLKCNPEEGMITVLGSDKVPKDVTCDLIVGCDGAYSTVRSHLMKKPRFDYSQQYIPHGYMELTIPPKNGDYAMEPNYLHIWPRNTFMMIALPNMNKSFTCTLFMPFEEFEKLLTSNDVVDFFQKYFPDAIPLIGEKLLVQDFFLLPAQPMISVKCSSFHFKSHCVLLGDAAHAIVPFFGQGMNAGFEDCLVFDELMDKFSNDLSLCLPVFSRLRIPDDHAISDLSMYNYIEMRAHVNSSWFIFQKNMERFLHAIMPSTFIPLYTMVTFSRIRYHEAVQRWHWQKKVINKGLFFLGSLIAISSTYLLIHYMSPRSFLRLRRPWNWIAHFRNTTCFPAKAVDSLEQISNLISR
T2 sequence (Q84HF5 whole entry C252S/C461S): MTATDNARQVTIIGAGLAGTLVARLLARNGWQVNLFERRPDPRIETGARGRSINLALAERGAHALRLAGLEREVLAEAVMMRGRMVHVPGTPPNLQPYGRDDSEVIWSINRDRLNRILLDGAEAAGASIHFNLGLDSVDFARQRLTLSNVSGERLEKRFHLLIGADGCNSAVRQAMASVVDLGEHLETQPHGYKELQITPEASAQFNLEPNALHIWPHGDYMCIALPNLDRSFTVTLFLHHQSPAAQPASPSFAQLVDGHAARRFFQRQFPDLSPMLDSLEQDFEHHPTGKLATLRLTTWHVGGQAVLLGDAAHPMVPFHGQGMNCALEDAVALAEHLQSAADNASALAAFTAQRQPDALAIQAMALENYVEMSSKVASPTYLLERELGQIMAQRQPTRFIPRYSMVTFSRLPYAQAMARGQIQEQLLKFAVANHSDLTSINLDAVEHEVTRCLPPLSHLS

| SMILES | IC50 (Homo sapiens KMO (HsKMO)) [µM] | IC50 [1] [µM] | IC50 ([1]; read-out: IC50 PfKMO) [µM] |
| --- | --- | --- | --- |
| O=C(Nc1ccccc1C(=O)O)c1ccc(-c2ccc(Cl)cc2Cl)o1 [compound 10, 2-(5-(2,4-dichlorophenyl)furan-2-carboxamido)benzoic acid] | 1.6 | 3 ± 0.1 | – |
| O=C(O)c1ccc(-c2ccccc2C(F)(F)F)o1 [compound 11, 5-[2-(trifluoromethyl)phenyl]furan-2-carboxylic acid] | 144 | 72.1 ± 1.9 | – |
| O=C(O)c1ccc(-c2cc(C(F)(F)F)ccc2Cl)o1 [compound 12, 5-[2-chloro-5-(trifluoromethyl)phenyl]furan-2-carboxylic acid] | 31.8 | 54 ± 1.6 | – |
| CC(C)n1c(CCC(=O)O)ccc1-c1ccc(Cl)cc1 [compound 14, 3-[5-(4-chlorophenyl)-1-(methylethyl)pyrrol-2-yl]propanoic acid] | 38.8 | – | – |
| COc1ccc(-c2cn(CC(=O)O)c(=O)cn2)cc1 [compound 15, 2-(5-(4-methoxyphenyl)-2-oxopyrazin-1(2H)-yl)acetic acid] | 54.2 | – | 6.3 ± 0.6 |
| O=C(O)c1ccc(-c2ccc(Cl)cc2Cl)o1 [compound 16, 5-(2,4-dichlorophenyl) furan-2-carboxylic acid] | 207 | 70.2 ± 2.8 | – |
| O=C(O)c1ccc(-c2cccc(Cl)c2)o1 [compound 17, 5-(3-chlorophenyl) furan-2-carboxylic acid] | 442 | 15.9 ± 0.8 | – |
| O=C(O)c1ccc(-c2ccc(F)c(Cl)c2)o1 [compound 18, 5-(3-chloro-4-fluorophenyl) furan-2-carboxylic acid] | 193 | 2.4 ± 0.3 | – |
| O=C(O)c1ccc(-c2ccc(Br)c(Cl)c2)o1 [compound 19, 5-(4-bromo-3-chlorophenyl) furan-2-carboxylic acid] | 54.2 | 0.7 ± 0.01 | – |
